We go through 21 compounds from US7378397B2 (The Provost, Fellows and Scholars of the College of the …, priority 2000, dated 2008).

In assay [1] the target is T1, TRH-DE (Sus scrofa, UniProt A0A287AP33).
T1 construct: The inventor purified TRH-DE from porcine brain according to purification procedures previously published by Dr. K. Bauer; from tissue; host or cells: porcine brain (TRH-DE); bovine kidney (DPP-IV, gift from Dr. C. H. Williams)
Kind of assay: HPLC assay of peptide hydrolysis by TRH-DE (Glp production). The assay is classed as biochemical, porcine. The note with it: for Rate of hydrolysis: peptide 1 mM, 37° C., Glp production by HPLC, mean±S.D.; for hydrolysis by TRH-DE (release of Glp): 1 mM peptide incubated with TRH-DE 18 h at 37° C., HPLC. On the procedure:
(§1) The inventor purified TRH-DE from porcine brain according to purification procedures previously published by Dr. K. Bauer, (Max-Planck-Institut, Hannover, Germany) (1). TRH-DE was purified almost 20,000 fold. […] Dipeptidyl peptidase IV (DPP-IV) (EC 3.4.14.5), purified from bovine kidney (7.7 mg ml^−1, specific activity of 17.5 U mg^−1 with Gly-ProAMC as substrate), was obtained as a gilt from Dr. C. H. Williams (Queen's University Belfast, U.K). (DPP-IV was used as the coupling enzyme used in the fluorometric assays).
(§2) One unit (U) of enzyme activity was defined as that amount catalysing the formation of one μmol of product in one minute under the standard conditions employed. All incubations in the assays described below were carried out in 20 mM potassium phosphate buffer, pH 7.5, at 37° C.
Kinetic analysis of the peptide library using HPLC—The ability of each peptide in the library to act as a TRH-DE substrate was assessed using HPLC. As an initial screen, 1 mM peptide was incubated with 0.8 μg TRH-DE in a total volume of 1 ml for 18 h at 37° C. Control samples were included in which peptide (1 mM) or Glp (0.2 mM-0.8 mM) were incubated under identical conditions in the absence of TRH-DE. TRH-DE activity was terminated by the addition of TFA (0.15% v/v) and samples were then analysed using HPLC as described previously (24). Products resulting from TRH-DE hydrolysis could be separated on a C-18 reverse-phase column (Hypersil, UK) using a linear gradient of 0-70% acetonitrile in 0.08% (v/v) TFA. The concentration of Glp formed by the action of TRH-DE on the peptide library was measured by UV absorbance at 206 nm with a quantitative detection limit of 0.1 mM for a 40 μl injection volume, employing a signal to noise ratio of 10. Following the incubation of each peptide with TRH-DE, evidence of Glp in the sample was taken to indicate that the peptide was a TRH-DE substrate.
The rates of hydrolysis for each of those peptides identified as substrates were then compared by measuring Gip production using microassays with shorter incubation times. In these assays peptide (1 mM) was incubated at 37° C. in a total volume of 100 μl. 0.8-3.2 μg TRH-DE and incubations times of 5 min to 18 h were used routinely. Measurements were made in triplicate. The rate of TRH-OH hydrolysis was also measured by this method.

The target of assay [2] is T1, TRH-DE. Kind of assay: continuous coupled fluorometric TRH-DE assay (TRHAMC substrate, DPP-IV coupling enzyme). The note with it: for inhibition at 1000 µM: peptide 1 mM, 5 μM TRHAMC substrate. It is filed as biochemical, porcine. The protocol:
as §1, §2
Kinetic analysis of peptides that are not hydrolysed by TRH-DE. A recently-developed continuous coupled fluorometric assay (23) was used to investigate the ability of those library peptides that were not hydrolysed by TRH-DE to inhibit TRHAMC degradation by TRH-DE. In this assay, TRHAMC is the substrate and dipeptidyl peptidase IV (DPP-IV) (EC 3.4.14.5) is the coupling enzyme. The reaction sequence is:
The reaction was monitored continuously by measuring the increase in AMC fluorescence. A linear progress curve with no discernible lag period was observed when the reaction was monitored over a period of 10 minutes. Nevertheless, data sampling was not commenced until 100 s from the start of the reaction to ensure measurements were taken after a steady state had been reached (see Ref. 23).
In a preliminary experiment, the peptides were screened for their ability to inhibit TRH-DE activity. The initial rate of TRHAMC hydrolysis by TRH-DE was measured by incubating 5 μM TRHAMC with 1.23 μg DPP-IV and 0.32 μg TRH-DE, both in the absence and presence of each library peptide (1 mM final concentration) under standard assay conditions (23). In each case the percentage inhibition (i%) was calculated using the equation i%=100(1-vi/vo), where vi and vo are the initial velocities in the presence and absence of peptide, respectively.
Since these peptides were poor inhibitors they were not examined further. The Ki values for the remainder of the peptides were determined by measuring their effects on TRHAMC degradation by TRH-DE using the continuous assay. Data were collected in duplicate at five different substrate concentrations and at least three different concentrations of each peptide.
Reversibility and time dependence of the inhibition produced by Glp-Gln-ProNH2, Glp-Asn-ProNH2 and Glp-Asn-ProAMC were examined by initially preincubating TRH-DE with each peptide at 37° C. for various periods up to 75 min. To investigate time dependence, the enzyme-peptide solution was subsequently added to the reaction mixture containing TRHAMC, DPP-IV, buffer and peptide, and TRH-DE activity was measured using the continuous assay. The final concentration of Glp-Gln-ProNH2, Glp-Asn-ProNH2 and Glp-Asn-ProAMC used was 400, 160 and 1 μM, respectively. […] TRH-DE activity was not affected by pre-incubation at 37° C.
Fluorescence measurements were made using a Perkin Elmer LS 50B Luminescence Spectrometer fitted with a thernostated cell holder. Wavelengths for excitation and emission were set at 370 nm and 440 nm, respectively, with slit widths of 10 nm and 5 nm, respectively.

The mark [3] stands for this setting: estimated from <20% inhibition at 1 mM peptide with the competitive inhibition relationship.
[4] abbreviates: non-linear regression, five TRHAMC concentrations and at least three peptide concentrations, mean±S.D. (n=3).

Entries after “also recorded” stand apart in the source; their conditions may differ. Where a SMILES comes first, the peptide text is derived from it. [ ]: non-standard residue; d: D form. hPhe = N[C@@H](CCc1ccccc1)C(=O)O; pGlu = O=C1CC[C@@H](C(=O)O)N1; Phg = N[C@H](C(=O)O)c1ccccc1; Pip = O=C(O)[C@@H]1CCCCN1

T1 sequence (A0A287AP33 1-1066): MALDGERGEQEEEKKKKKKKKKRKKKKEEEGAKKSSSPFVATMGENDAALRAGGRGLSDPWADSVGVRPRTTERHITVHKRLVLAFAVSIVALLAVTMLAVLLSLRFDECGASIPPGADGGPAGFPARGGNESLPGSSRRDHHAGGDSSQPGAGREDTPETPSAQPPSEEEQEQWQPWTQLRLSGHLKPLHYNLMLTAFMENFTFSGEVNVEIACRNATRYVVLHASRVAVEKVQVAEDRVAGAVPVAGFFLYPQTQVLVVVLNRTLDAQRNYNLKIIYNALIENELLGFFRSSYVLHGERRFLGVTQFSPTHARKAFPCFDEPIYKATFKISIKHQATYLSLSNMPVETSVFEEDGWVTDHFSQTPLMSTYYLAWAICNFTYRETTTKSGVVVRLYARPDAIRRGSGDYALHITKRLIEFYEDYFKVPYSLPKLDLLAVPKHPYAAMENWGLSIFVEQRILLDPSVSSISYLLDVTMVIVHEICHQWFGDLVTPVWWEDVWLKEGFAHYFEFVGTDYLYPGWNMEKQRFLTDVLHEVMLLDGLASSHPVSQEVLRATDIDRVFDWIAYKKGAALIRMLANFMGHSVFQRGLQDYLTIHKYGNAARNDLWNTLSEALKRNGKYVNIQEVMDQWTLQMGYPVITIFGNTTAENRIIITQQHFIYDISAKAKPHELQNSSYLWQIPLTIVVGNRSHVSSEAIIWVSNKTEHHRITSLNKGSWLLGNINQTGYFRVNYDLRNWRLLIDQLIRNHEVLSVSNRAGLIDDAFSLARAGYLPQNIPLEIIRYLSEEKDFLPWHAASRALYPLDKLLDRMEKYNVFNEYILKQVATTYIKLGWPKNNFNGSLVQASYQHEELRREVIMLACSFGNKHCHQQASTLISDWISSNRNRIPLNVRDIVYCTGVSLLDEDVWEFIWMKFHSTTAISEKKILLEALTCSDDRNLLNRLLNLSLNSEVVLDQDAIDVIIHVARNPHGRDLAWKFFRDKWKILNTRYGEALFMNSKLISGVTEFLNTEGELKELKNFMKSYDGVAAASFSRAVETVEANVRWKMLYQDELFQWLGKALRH

On to [pGlu]-Leu-Pro-NH2, for which, in assay [1], the Rate of hydrolysis is on record as 0.14 ± 0.01 (5) U mg^−1. In the case of `NC(=O)[C@@H]1CCCN1C(=O)CNC(=O)[C@@H]1CCC(=O)N1` [Glp-Gly-ProNH2] ([pGlu]-Gly-Pro-NH2), the Ki in assay [2] (setting [3]) was > 1000 µM. Also, 1000 µM produced 8% inhibition in assay [2]. The “hydrolysis by TRH-DE (release of Glp)” value in assay [1] is on record as “No detectable Glp”.

As to `NC(=O)[C@@H]1CCCN1C(=O)[C@@H]1CCCCN1C(=O)[C@@H]1CCC(=O)N1` [Glp-homoPro-ProNH2] ([pGlu]-[Pip]-Pro-NH2), the Ki in assay [2] (setting [4]) was 500 ± 133 µM. The same compound had an inhibition at 1000 µM in assay [2] of 40%. Also, the “hydrolysis by TRH-DE (release of Glp)” value in assay [1] is “No detectable Glp”.

In the case of [pGlu]-Val-Pro-NH2, the Rate of hydrolysis in assay [1] is 0.05 ± 0.00 (3) U mg^−1. [pGlu]-Thr-Pro-NH2: in assay [1], the Rate of hydrolysis was 0.14 ± 0.01 (5) U mg^−1. Turning to [pGlu]-Arg-Pro-NH2, the Rate of hydrolysis in assay [1] is 0.41 ± 0.02 (4) U mg^−1.

`NC(=O)C[C@@H](NC(=O)[C@@H]1CCC(=O)N1)C(=O)N1CCC[C@H]1C(N)=O` [Glp-D-Asn-ProNH2] ([pGlu]-[dN]-Pro-NH2): in assay [2] (setting [3]), the Ki is > 1000 µM. Besides, in assay [2], the inhibition at 1000 µM is 2%. Further, the “hydrolysis by TRH-DE (release of Glp)” value in assay [1] was “No detectable Glp”. On to [pGlu]-Cys-Pro-NH2, for which the “hydrolysis by TRH-DE (release of Glp)” value in assay [1] is reported as “no detectable cleavage”.

Compound `NC(=O)CC[C@H](NC(=O)[C@@H]1CCC(=O)N1)C(=O)N1CCC[C@H]1C(N)=O` [Glp-Gln-ProNH2] ([pGlu]-Gln-Pro-NH2) gave a Ki in assay [2] (setting [4]) of 69 ± 4.4 µM. Besides, the inhibition at 1000 µM in assay [2] was 83%. For the same compound, the “reversibility and time dependence of inhibition” value in assay [2] (preincubation with TRH-DE up to 75 min at 37° C., Glp-Gln-ProNH2 400, Glp-Asn-ProNH2 160, Glp-Asn-ProAMC 1 μM) was “fully reversible and not time-dependent”. In addition, the “hydrolysis by TRH-DE (release of Glp)” value in assay [1] is listed as “not hydrolyzed at all; also recorded: No detectable Glp”. Take [pGlu]-Met-Pro-NH2: the Rate of hydrolysis in assay [1] was 0.21 ± 0.03 (4) U mg^−1. In the case of `NC(=O)[C@@H]1CCCN1C(=O)[C@H](Cc1c[nH]c2ccccc12)NC(=O)[C@@H]1CCC(=O)N1` [Glp-Trp-ProNH2] ([pGlu]-Trp-Pro-NH2), the Ki in assay [2] (setting [4]) was found to be 232 ± 26 µM. This compound came in with an inhibition at 1000 µM in assay [2] of 71%. Besides, the “hydrolysis by TRH-DE (release of Glp)” value in assay [1] is reported as “No detectable Glp”. For the compound `NC(=O)[C@@H]1CCCN1C(=O)[C@H](Cc1ccc(O)cc1)NC(=O)[C@@H]1CCC(=O)N1` [Glp-Tyr-ProNH2] ([pGlu]-Tyr-Pro-NH2), in assay [1], the Rate of hydrolysis was 0.66 ± 0.04 (5) U mg^−1. For the compound [pGlu]-Ala-Pro-NH2, in assay [1], the “hydrolysis by TRH-DE (release of Glp)” value is “not completely degraded; also recorded: only partially degraded” and the Rate of hydrolysis was 0.02 ± 0.00 (3) U mg^−1. Also, the Glp produced in assay [1] (1 mM peptide, overnight incubation with TRH-DE) is listed as 0.2 mM. On to [pGlu]-[hPhe]-Pro-NH2, for which, in assay [1], the Rate of hydrolysis was 0.05 ± 0.00 (3) U mg^−1. Consider Glp-NorVal-ProNH2, for which the Rate of hydrolysis in assay [1] is recorded as 0.04 ± 0.00 (6) U mg^−1. Same read-out and setting: in the case of [pGlu]-Lys-Pro-NH2 it was 0.46 ± 0.02 (3) U mg^−1. Consider Glp-Ileu-ProNH2, for which, in assay [1], the Rate of hydrolysis is 0.06 ± 0.00 (4) U mg^−1. For `NC(=O)[C@@H]1CCCN1C(=O)[C@H](CC(=O)O)NC(=O)[C@@H]1CCC(=O)N1` [Glp-Asp-ProNH2] ([pGlu]-Asp-Pro-NH2), the Ki in assay [2] (setting [3]) is > 1000 µM. Besides, the inhibition at 1000 µM in assay [2] turned out to be 1%. Also, the “hydrolysis by TRH-DE (release of Glp)” value in assay [1] is listed as “No detectable Glp”. Turning to `NC(=O)[C@@H]1CCCN1C(=O)[C@@H]1CCCN1C(=O)[C@@H]1CCC(=O)N1` [Glp-Pro-ProNH2] ([pGlu]-Pro-Pro-NH2), the Ki in assay [2] (setting [3]) was > 1000 µM. In assay [2], this compound registered an inhibition at 1000 µM of 3%. For the same compound, the “hydrolysis by TRH-DE (release of Glp)” value in assay [1] was “No detectable Glp”. The compound `NC(=O)[C@@H]1CCCN1C(=O)[C@@H](NC(=O)[C@@H]1CCC(=O)N1)c1ccccc1` [Glp-Phg-ProNH2] ([pGlu]-[Phg]-Pro-NH2) had a Ki in assay [2] (setting [4]) of 356 ± 19 µM. The compound further yielded an inhibition at 1000 µM in assay [2] of 57%. In addition, in assay [1], the “hydrolysis by TRH-DE (release of Glp)” value is “No detectable Glp”. On to [pGlu]-Ser-Pro-NH2, for which the Rate of hydrolysis in assay [1] is on record as 0.05 ± 0.00 (3) U mg^−1.

For orientation: Ki means the equilibrium dissociation constant of an inhibitor or competing ligand from its target. The inhibition is the share of the control response that was lost under treatment. A lower inhibition goes with a response near the control.
